According to patent US20050209195A1, “Indolinone derivatives” (Cell Therapeutics Europe S.r.I, priority 2004, published 2005):

Tests used:
[1] = target: T1, human Ret TKR-catalytic domain (Homo sapiens, UniProt P07949); assay: DELFIA Ret Kinase Assay (cell-free); format: biochemical; settings: cell-free DELFIA, 50 ng Ret TKR, 3 μM ATP, 10 min. at 30° C.; read-out: IC50
T1 construct: human Ret TKR-catalytic domain; purchased ProQinase
T1 sequence (P07949 724-1016 limits assumed): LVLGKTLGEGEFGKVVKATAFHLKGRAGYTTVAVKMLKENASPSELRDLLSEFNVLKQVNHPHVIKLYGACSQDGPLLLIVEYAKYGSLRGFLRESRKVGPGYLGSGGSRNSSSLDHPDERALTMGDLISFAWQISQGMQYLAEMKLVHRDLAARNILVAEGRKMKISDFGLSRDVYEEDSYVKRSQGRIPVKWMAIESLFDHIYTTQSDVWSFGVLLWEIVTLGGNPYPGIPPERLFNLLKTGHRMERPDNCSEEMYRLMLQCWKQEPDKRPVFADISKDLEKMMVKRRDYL
Experimental: In order to evidence and quantify inhibitory activity on Ret tyrosine kinase, the most representative compounds of the invention were tested with a dedicated DELFIA kinase assay, using a human tyrosine-kinase receptor (Ret TKR) recombinant form (human Ret TKR-catalytic domain) available from ProQinase as the tyrosine kinase.
After 10 min. incubation at 30° C., the kinase reactions were worked up as in the DELFIA cKit Kinase Assay.

[2] = target: Met (Homo sapiens, UniProt P08581); settings: cited from earlier work
[3] = tested on: tyrosine kinases Ret/MEN2A, Ret/MEN2B, Met, PDGF-R, FGF-R1, FGF-R3 and Kit; settings: cited from earlier work
[4] = tested on: NIH3T3^MEN2A(C634R) cells; assay: Reversal of morphologically transformed phenotype, contrast phase microscopy, 24 h; format: cell-based, murine; settings: 24 h treatment; for minimal effective concentration: Mus musculus, NIH3T3MEN2A, read-out: Morphology a 24 h: concentration from which reversal was observed
Experimental: (§1) NIH3T3 Murine fibroblasts and the transfected line NIH3T3^MEN2A(C634R) were treated with increasing concentrations of the compounds of the invention for 72 h. Survival curves were obtained by Coulter Counter cell count. IC50s calculated from said curves are reported in Table 9: the higher sensitivity of the oncoprotein-expressing cell line is evident. The reversal of the morphologically transformed phenotype of NIH3T3^MEN2A (C634R) cells in the presence of the compounds of the invention was evaluated by contrast phase microscopy after 24 h treatment and photographically documented.

[5] = tested on: Ret/MEN2A (mutC634R and mutC634W); settings: cited from earlier work
[6] = target: T2, Human cKit Tyrosine Kinase Receptor (human cKit RTK-catalytic domain) (Homo sapiens, UniProt P10721); assay: DELFIA cKit Tyrosine Kinase Assay (cell-free); format: biochemical; settings: cell-free DELFIA, 25 ng cKit TKR, 150 μM ATP, 20 minutes at 30° C.; read-out: IC50
T2 construct: human cKit RTK-catalytic domain; purchased Panvera-Invitrogen P3080
Experimental: The compounds of the invention were tested with a dedicated cell-free kinase assay for the evaluation of the inhibiting activity on tyrosine kinases.
In more detail, the assay was a DELFIA™ (Dissociation Enhanced Time-Resolved Fluorometric Assay) Tyrosine Kinase Assay™ (PerkinElmer), a highly sensitive, reproducible ELISA assay that allows to evaluate the activity of a tyrosine kinase.
Human cKit Tyrosine Kinase Receptor (human cKit RTK-catalytic domain), commercially available from Panvera-Invitrogen (Cat. N^o. P3080), was used as the tyrosine kinase.
After 1 hour incubation at room temperature and three washings with 1×DELFIA Wash Buffer (PerkinElmer), the phosphotyrosine residues of the acceptor were detected with an europium-labelled anti-phosphotyrosine monoclonal antibody (DELFIA Eu-N1 labelled anti-phosphotyrosine antibody PT66, PerkinElmer) and, after a further hour incubation at room temperature and three washings with 1×DELFIA Wash Buffer, overall phosphorylation of biotinylated polyGAT was determined by addition of Enhancement Solution (PerkinElmer) and fluorimetric analysis of the plates (α-Fusion FP HT, PerkinElmer) in the “Time-Resolved Fluorescence” mode.

[7] = target: FGF-R1 (Homo sapiens, UniProt P11362); settings: cited from earlier work
[8] = tested on: cells transformed by Ret/MEN2A, Ret/MEN2B, Met, PDGF-R, FGF-R1, FGF-R3 and Kit; settings: cited from earlier work
[9] = tested on: Kit (c-Kit and mutΔ559); settings: cited from earlier work
[10] = tested on: PDGF-R; settings: cited from earlier work
[11] = tested on: NIH3T3^MEN2A(C634R) cells; assay: Survival curves by Coulter Counter cell count, 72 h; format: cell-based, murine; settings: Mus musculus, NIH3T3MEN2A, 72 h treatment, read-out: Cont at 72 h IC50
Experimental: as §1

[12] = target: FGF-R3 (Homo sapiens, UniProt P22607); settings: cited from earlier work
[13] = tested on: NIH3T3 cells transformed by oncoprotein Ret/ptc1; settings: cited from earlier work
[14] = target: Ret/MEN2B (mutM918T) (Homo sapiens, UniProt P07949, M918T); settings: cited from earlier work
Ret/MEN2B (mutM918T), sequence (P07949 29-1114 M918T): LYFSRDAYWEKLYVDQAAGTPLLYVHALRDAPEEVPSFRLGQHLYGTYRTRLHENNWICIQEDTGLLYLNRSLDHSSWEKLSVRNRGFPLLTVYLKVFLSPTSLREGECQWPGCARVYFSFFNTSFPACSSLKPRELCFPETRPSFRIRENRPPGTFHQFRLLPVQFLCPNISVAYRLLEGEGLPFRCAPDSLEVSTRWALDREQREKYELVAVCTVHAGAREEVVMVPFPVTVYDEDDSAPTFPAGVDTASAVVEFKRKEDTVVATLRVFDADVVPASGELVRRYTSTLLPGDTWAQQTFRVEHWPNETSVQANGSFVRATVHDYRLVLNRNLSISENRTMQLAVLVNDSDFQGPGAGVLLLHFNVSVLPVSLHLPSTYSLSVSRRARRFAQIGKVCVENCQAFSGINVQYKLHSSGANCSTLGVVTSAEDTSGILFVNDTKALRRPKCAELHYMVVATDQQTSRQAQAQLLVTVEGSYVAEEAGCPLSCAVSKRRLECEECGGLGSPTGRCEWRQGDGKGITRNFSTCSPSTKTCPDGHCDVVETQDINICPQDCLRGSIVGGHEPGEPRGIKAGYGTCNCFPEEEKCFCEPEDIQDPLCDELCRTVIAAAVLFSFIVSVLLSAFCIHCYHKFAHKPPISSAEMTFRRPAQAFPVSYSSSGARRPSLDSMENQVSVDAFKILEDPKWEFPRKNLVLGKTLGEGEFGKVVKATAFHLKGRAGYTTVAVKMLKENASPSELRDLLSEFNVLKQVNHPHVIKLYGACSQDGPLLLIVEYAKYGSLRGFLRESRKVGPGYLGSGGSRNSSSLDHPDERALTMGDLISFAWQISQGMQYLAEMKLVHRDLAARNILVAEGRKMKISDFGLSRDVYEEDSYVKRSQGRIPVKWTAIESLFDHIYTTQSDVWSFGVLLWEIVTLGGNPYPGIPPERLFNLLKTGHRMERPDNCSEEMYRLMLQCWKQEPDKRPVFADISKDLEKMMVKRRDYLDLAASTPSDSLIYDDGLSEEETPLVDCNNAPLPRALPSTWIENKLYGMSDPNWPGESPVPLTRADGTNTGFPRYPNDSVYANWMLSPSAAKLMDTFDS

T2 sequence (P10721 589-937 limits assumed): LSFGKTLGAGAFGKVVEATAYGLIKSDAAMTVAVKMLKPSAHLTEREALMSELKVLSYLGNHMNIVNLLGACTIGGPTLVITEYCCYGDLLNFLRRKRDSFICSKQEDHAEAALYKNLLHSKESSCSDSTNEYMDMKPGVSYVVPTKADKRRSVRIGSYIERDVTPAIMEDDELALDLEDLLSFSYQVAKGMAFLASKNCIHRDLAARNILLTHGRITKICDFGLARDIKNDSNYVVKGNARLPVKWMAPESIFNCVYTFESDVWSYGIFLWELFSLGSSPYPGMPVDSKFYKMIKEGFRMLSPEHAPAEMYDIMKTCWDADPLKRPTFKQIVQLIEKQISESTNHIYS
Met, sequence (P08581 25-1390): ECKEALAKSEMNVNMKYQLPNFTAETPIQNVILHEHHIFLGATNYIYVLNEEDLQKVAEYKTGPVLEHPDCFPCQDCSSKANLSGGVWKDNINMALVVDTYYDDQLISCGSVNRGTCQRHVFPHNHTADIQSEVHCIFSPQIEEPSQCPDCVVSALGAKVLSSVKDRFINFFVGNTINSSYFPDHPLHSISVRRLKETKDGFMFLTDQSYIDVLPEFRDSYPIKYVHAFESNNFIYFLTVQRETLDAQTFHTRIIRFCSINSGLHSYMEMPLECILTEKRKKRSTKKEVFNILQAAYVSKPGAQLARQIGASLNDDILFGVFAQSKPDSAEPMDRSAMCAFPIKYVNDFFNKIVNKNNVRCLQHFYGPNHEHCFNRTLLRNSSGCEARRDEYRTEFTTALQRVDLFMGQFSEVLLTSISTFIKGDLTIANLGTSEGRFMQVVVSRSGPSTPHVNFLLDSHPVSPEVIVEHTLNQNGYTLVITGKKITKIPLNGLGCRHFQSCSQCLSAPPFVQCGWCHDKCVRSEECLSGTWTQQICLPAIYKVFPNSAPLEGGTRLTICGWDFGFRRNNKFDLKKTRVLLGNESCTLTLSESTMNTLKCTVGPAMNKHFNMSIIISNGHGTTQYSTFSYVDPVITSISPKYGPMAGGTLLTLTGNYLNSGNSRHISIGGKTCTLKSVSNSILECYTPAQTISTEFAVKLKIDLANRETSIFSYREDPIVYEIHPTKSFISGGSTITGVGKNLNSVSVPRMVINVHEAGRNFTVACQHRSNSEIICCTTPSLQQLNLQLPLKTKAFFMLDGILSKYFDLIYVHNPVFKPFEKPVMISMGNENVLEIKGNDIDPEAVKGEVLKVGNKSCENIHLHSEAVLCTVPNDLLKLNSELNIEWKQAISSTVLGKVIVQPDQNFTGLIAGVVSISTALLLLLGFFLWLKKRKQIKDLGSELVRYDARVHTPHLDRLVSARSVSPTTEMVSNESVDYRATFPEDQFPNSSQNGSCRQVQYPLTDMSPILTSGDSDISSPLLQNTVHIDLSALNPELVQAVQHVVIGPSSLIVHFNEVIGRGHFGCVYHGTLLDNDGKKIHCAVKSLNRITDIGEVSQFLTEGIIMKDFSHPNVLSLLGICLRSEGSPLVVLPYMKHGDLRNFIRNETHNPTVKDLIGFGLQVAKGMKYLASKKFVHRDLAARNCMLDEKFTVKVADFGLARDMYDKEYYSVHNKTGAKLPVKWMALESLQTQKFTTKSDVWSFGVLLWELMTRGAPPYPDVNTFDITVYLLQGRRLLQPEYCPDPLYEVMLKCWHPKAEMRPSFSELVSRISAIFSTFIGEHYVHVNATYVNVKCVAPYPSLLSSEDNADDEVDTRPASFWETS
FGF-R3, sequence (P22607 23-806, species assumed): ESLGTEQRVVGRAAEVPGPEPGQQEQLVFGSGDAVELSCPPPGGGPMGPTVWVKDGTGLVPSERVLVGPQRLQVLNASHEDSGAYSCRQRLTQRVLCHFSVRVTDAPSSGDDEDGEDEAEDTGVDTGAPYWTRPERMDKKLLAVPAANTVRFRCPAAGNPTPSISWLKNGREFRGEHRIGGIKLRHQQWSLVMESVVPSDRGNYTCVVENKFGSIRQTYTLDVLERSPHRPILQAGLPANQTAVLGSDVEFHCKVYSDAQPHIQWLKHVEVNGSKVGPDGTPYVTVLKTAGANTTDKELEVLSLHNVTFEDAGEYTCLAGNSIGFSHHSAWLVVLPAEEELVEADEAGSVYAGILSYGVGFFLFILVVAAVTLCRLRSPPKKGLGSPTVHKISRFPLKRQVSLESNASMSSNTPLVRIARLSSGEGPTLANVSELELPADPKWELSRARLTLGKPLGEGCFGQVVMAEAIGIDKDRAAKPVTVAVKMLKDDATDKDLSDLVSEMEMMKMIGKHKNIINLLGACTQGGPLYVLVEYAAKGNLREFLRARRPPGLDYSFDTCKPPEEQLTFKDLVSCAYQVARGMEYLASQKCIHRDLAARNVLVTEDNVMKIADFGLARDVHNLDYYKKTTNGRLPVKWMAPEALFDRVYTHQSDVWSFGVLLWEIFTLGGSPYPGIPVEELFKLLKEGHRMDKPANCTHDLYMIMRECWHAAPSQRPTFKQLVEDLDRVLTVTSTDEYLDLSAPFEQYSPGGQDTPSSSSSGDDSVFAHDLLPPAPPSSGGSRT
FGF-R1, sequence (P11362 22-822, species assumed): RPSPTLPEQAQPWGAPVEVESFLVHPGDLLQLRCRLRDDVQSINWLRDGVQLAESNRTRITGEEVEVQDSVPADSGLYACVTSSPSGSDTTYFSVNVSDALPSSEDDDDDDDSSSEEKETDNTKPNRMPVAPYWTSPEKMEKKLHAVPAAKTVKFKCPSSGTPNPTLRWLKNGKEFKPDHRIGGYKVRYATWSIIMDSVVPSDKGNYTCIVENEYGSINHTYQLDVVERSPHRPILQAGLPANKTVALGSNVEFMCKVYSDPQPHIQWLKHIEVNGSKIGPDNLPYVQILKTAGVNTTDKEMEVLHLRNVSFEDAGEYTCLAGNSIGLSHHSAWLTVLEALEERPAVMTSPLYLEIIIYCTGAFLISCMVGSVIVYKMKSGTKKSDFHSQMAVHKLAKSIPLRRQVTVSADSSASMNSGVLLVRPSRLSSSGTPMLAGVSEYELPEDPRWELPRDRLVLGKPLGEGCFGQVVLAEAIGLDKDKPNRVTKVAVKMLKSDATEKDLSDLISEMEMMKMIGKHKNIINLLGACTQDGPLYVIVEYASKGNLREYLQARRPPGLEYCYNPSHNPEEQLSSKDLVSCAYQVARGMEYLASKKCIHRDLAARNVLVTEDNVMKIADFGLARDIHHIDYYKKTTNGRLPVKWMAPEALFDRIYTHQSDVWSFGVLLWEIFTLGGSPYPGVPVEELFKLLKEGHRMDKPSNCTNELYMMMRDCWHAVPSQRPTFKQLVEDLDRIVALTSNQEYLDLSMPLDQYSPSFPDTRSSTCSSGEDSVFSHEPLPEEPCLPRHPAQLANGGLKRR

COc1cc2c(cc1OC)/C(=C\c1ccc(O)cc1)C(=O)N2 [(E)-1,3-dihydro-4-hydroxybenzylidene-5,6-dimethoxy-1H-indol-2-one]
IC50 [1]: 3.67 µM
inhibition of self-phosphorylation [2]: fully inhibiting
down regulation of tyrosine kinase expression [3]: down regulating their expression
Morphology a 24 h [4]: REVERSAL
minimal effective concentration [4]: ≥ 6 µM
inhibition of self-phosphorylation [5]: fully inhibiting
IC50 [6]: 2.37 ± 0.68 µM
inhibition of self-phosphorylation [7]: fully inhibiting
restoring the phenotype of transformed cells [8]: restoring the phenotype of cells transformed by them
inhibition of self-phosphorylation [9]: fully inhibiting
inhibition of self-phosphorylation [10]: fully inhibiting
IC50 [11]: 3.6 ± 1.6 µM
inhibition of self-phosphorylation [12]: fully inhibiting
restoring the normal phenotype in transformed cells [13]: restoring the normal phenotype
inhibition of self-phosphorylation [14]: fully inhibiting

COc1cc2c(cc1OC)/C(=C\c1ccc(OC(=O)N3CCC(N4CCCCC4)CC3)cc1)C(=O)N2 [B.5, 4-(1′-Piperidinyl)-1-piperidinecarboxylic Acid, (E)-4-(5,6-dimethoxy-2-oxo-1,2-dihydro-indol-3-ylidenemethyl)phenyl Ester]
IC50 [1]: 2.17 µM
melting point: 235 to 237 °C
Morphology a 24 h [4]: REVERSAL
minimal effective concentration [4]: ≥ 5 µM
IC50 [6]: 4.68 µM
IC50 [11]: 2 ± 0.7 µM

COc1cc2c(cc1OC)/C(=C\c1ccc(OC(=O)N3CCN(C)CC3)cc1)C(=O)N2 [Example B.1, (E)-4-methyl-piperazine-1-carboxylic Acid, 4-(5,6-dimethoxy-2-oxo-1,2-dihydro-indol-3-ylidenemethyl)phenyl Ester]
IC50 [1]: 13.3 µM
melting point: 198 to 200 °C
Morphology a 24 h [4]: REVERSAL
minimal effective concentration [4]: ≥ 10 µM
IC50 [6]: 4.46 µM
IC50 [11]: 2.8 ± 0.5 µM

COc1cc2c(cc1OC)/C(=C\c1ccc(OP(=O)(O)O)cc1)C(=O)N2 [Example C.1, (E)-4-(5,6-dimethoxy-2-oxo-1,2-dihydro-indol-3-ylidenemethyl)phenyl Phosphoric Acid]
IC50 [1]: 2.61 µM
melting point: 218 to 220 °C
Morphology a 24 h [4]: REVERSAL
minimal effective concentration [4]: ≥ 10 µM
IC50 [6]: 51.8 µM
IC50 [11]: 3.9 ± 0.25 µM

COc1ccc(OC(=O)Oc2ccc(/C=C3/C(=O)Nc4cc(OC)c(OC)cc43)cc2)cc1 [Example H.1, (E)-4-(5,6-dimethoxy-2-oxo-1,2-dihydro-indol-3-ylidenemethyl)phenyl, 4-methoxyphenyl Carbonate]
IC50 [1]: 4.43 µM
melting point: 165 to 167 °C
Morphology a 24 h [4]: REVERSAL
minimal effective concentration [4]: ≥ 10 µM
IC50 [6]: 1.19 µM
IC50 [11]: 3.3 ± 0.03 µM
